Data: patent publication US20230357320A1, “HELICAL STAPLED PEPTIDES AND USES THEREOF” (FOG PHARMACEUTICALS, INC., priority 2020, published 2023)
Read-outs that look alike come from different tables or passages of the source. Starred links: 1 amine or outer side, 2 acyl side, 3 side chain; linkers in the order of their positions; H or OH if unused. Positions of bridges follow the written chain, without caps; N, C: chain ends. Non-standard residues stand in square brackets, D forms with d. Residues, ends and D or L forms follow the SMILES beside them. Primed or numbered codes have the meaning given here. *: point of attachment. PL3 = (R)-N-acetyl-2-(2'-propenyl)proline (alpha-allyl proline), stapling residue, C=CC[C@@]1(C(=O)*)CCCN1C(C)=O; PL3″ = (R)-2-(2'-propenyl)proline (alpha-allyl proline), N-acetylated, C=CC[C@@]1(C(=O)*)CCCN1C(C)=O; X1 = O=C([C@]1(CC=[*:3])CCCN1[*:1])[*:2]; S5 = C=CCCC[C@](C)(N)C(=O)O

B1: PLL5-1 (Ac-PL3-Leu-Leu-S5-Tyr-Leu-Leu-Asp-Tyr-NHMe) (peptide)
peptide: Ac-[PL3″]LL[S5]YLLDY-NHMe
modifications: staple 1-4; also: staple isomer 2, cis olefin
notes: Second-generation ProLock stapled peptide; X marks non-standard residues
B2: PLL5-2 (Ac-PL3-Leu-Leu-S5-Tyr-Leu-Leu-Asp-Asp-NHMe) (peptide)
peptide: Ac-[PL3]LL[S5]YLLDD-NHMe
modifications: staple 1-4; also: staple isomer 2, cis olefin
notes: as for B1
B3: PLL7-1 (Ac-PL3-Thr-Leu-S5-Tyr-Leu-Leu-Asp-Asp-NHMe) (peptide)
peptide: Ac-[PL3]TL[S5]YLLDD-NHMe
modifications: staple 1-4; also: staple isomer 2, cis olefin
notes: as for B1
B4: PLL5-3 (Ac-PL3-Leu-Leu-S5-Tyr-Leu-Leu-Gln-Tyr-NHMe) (peptide)
peptide: Ac-[PL3]LL[S5]YLLQY-NHMe
modifications: staple 1-4; also: staple isomer 2, cis olefin
notes: as for B1
B5: PLL5-11 (Ac-PL3-Leu-Leu-S5-Tyr-Leu-Leu-His-NHMe) (peptide)
peptide: Ac-[PL3]LL[S5]YLLH-NHMe
modifications: staple 1-4; also: staple isomer 2, cis olefin
notes: as for B1
B6: PLL5-12 (Ac-PL3-Leu-Leu-S5-Tyr-Leu-Leu-Gln-NHMe) (peptide)
peptide: Ac-[PL3]LL[S5]YLLQ-NHMe
modifications: staple 1-4; also: staple isomer 2, cis olefin
notes: as for B1
B7: PLL5-5 (Ac-PL3-Thr-Leu-S5-Tyr-Leu-Leu-Asp-NHMe) (peptide)
peptide: Ac-[PL3]TL[S5]YLLD-NHMe
modifications: staple 1-4; also: staple isomer 2, cis olefin
notes: as for B1
B8: PLL5-6 (Ac-PL3-Lys-Leu-S5-Tyr-Leu-Leu-Asp-NHMe) (peptide)
peptide: Ac-[PL3]KL[S5]YLLD-NHMe
modifications: staple 1-4; also: staple isomer 2, cis olefin
notes: as for B1
B9: PLL7-20 (Ac-PL3-Ala-Leu-S5-His-Leu-Leu-Asn-NHMe) (peptide)
peptide: Ac-[PL3]AL[S5]HLLN-NHMe
modifications: staple 1-4; also: staple isomer 2, cis olefin
notes: as for B1
B10: PLL7-8 (Ac-PL3-Ala-Leu-S5-Tyr-Leu-Leu-Gln-Asp-NHMe) (peptide)
peptide: Ac-[PL3]AL[S5]YLLQD-NHMe
modifications: staple 1-4; also: staple isomer 2, cis olefin
notes: as for B1

How the values were obtained:
[1] = CHI Log D measurement (chromatographic hydrophobicity index); conditions: pH 7.4
in vitro = assay: in vitro; design: dose or concentration left out as unconfirmed; conditions: PAMPA, pH 7.4, PAMPA Pe
Description: (§1) The synthesized peptides were first analyzed with a PAMPA assay. […] The PAMPA plate system is composed of two compartments, donor and acceptor, which are separated by a phospholipid-infused membrane. The amount of compound transferred from the acceptor well into the donor well over a period of incubation time is used to determine the passive permeability of a compound.
(§2) The two plates are separated by a membrane infused with phospholipids. […] The amount of compound transferred from one well to the other is usually quantified by reverse-phase HPLC-mass spectrometry.
(§3) Briefly, all PAMPA assays were performed using the commercially available PAMPA plate system from Corning, which uses a proprietary membrane composed of structured phospholipids. […] To prevent nonspecific peptide loss to the plates, the acceptor wells of the Corning PAMPA plates were blocked overnight with 5% nonfat milk with 0.1% Triton X-100 in Dulbecco's phosphate buffer saline (DPBS) at pH=7.4, followed by extensive washing prior to assays. The donor wells and membrane itself were not exposed to the milk/Triton solution. […] The PAMPA experiments described herein were performed using plates from Corning Lot #9112010, Lot #9112011 and Lot #7317005 (Corning Inc., Corning, New York, USA).
(§4) To set up PAMPA assays, the PAMPA plate system was equilibrated at room temperature for at least an hour before setting up the assay. The acceptor plate preincubated with milk blocking solution was washed with water, followed by DPBS buffer. 300 μL of 5% DMSO in DPBS at pH=7.4 was added to the pre-blocked acceptor plate, and 200 μL of 10M compounds made with 5% DMSO in DPBS at pH=7.4 was added to the donor plate. The donor plate with a lid was then carefully inserted into the acceptor plate with no bubbles formed at the interface of donor and acceptor plates. The PAMPA assay plate was covered with aluminum foil and placed in a 37° C. incubator for 5 hours. 10 M input solution of all compounds was diluted 20-fold to a final acetonitrile concentration of 50% before analyzing by reverse-phase HPLC and Q-Exactive plus mass spectrometer. At the end of 5 hours, PAMPA donor and acceptor plates were separated and diluted 20-fold and 2-fold respectively to a final acetonitrile concentration of 50%. The diluted solutions of PAMPA donor and acceptor plates were analyzed by reverse-phase HPLC and Q-Exactive plus mass spectrometer.
(§5) Pe measures the passive permeability of each compound tested in the PAMPA assay, whereas % retention measures the amount of compound retained in solution at the end of the assay compared to the input sample.

[2] = for % Retention: PAMPA
Description: as §1, §2, §3, §4, §5

ERβ LBD = target: T1, ERβ LBD (Homo sapiens, UniProt Q92731); assay: Competition fluorescence polarization (FP) binding assay with FITC-ERL4 probe; conditions: read-out: EC50
T1 construct: pET28a+ vector containing ERβ LBD (residues from 261 to 500) along with an N-terminal His6-yBBr-TEV tag; His6 (N); yBBr (N); TEV cleavage site (N); made in house; host or cells: E. coli BL21(DE3) pLysS
Description: In addition to the PAMPA assay, to study the affinity of the first-generation ProLock™ stapled peptides to the Estrogen receptor p ligand-binding domain (ERβ LBD), a fluorescence polarization (FP) binding assay in competition format was used in the presence of the endogenous ERβ LBD ligand estradiol. Competition Fluorescence Polarization (FP) assay was performed on the peptides to determine their half-maximal effective concentration (EC50). To do this, FITC labeled ERL4 peptide (FITC-βAla-His-Pro-Leu-Leu-Nle-Arg-Leu-Leu-Leu-Ser-Pro-CONH2) was synthesized to be used as a fluorescence probe based on existing literature (Fuchs et al., Journal of the American Chemical Society 2013, 135 (11), 4364-4371). Direct FP was performed in black 384-well plates (Corning). The final volume of each assay well was 40 μL with constant concentration of FITC labeled ERL4 peptide (10 nM) and variable concentrations of ERβ LBD protein.
ERβ LBD expression and purification was performed as follows. BL21(DE3) pLysS E. coli cells were transformed with a pET28a+ vector containing ERβ LBD (residues from 261 to 500) along with an N-terminal His6-yBBr-TEV tag. An overnight culture in 10 mL of TB media containing 50 μg/mL kanamycin was prepared from a single bacterial colony. The overnight culture was subsequently added to 1 liter of autoclaved TB media containing 50 μg/mL kanamycin and shaken at 37° C. until an OD of 0.6-0.8 was reached. IPTG was added to the culture and left shaking for 6 hours. Bacterial culture was pelleted and resuspended in lysis buffer. Resuspended bacterial culture was incubated at 0° C. for 10 minutes before sonication at 65% amplitude with 10-sec cycles using a Branson Sonifier. The lysate was then cleared by centrifugation at 8000×g for 20 min. […] The expected molecular weight of the ERβ LBD protein is 30.8 KDa, which molecular weight was confirmed by SDS PAGE analysis. Purified ERβ LBD was concentrated to 90 μM and was stored at −80° C. buffer.
Competition FP assays were also employed. These were performed in black 384-well plates (Corning). The final volume of each assay well was 80 μL containing constant concentrations of estradiol (1 μM) and FITC labeled ERL4 (10 nM). The ERβ LBD concentration was held constant (200 nM) while varying the concentration of ProLock stapled peptides (3-fold dilution from 10 μM). Upon addition of samples to each well, the plate was centrifuged for 10 seconds at 3000 rpm and incubated at 4° C. for 1 hour. FP measurements were performed at room temperature with excitation and emission wavelengths at 485 and 535 nm using a Clariostar microplate reader (BMG Labtech). Each plate had high and low polarization samples, which are used to normalize the assay data. The competition FP results were analyzed by Prism 7 (GraphPad). The non-linear regression analysis of the data was used to determine the half-maximal effective concentration (EC50) of ProLock stapled peptides. […] The normalized FP values shown in FIG. 6 are mean±S.E.M of at least four independent replicates.

[3] = target: T2, Estrogen receptor β ligand-binding domain (ERβ LBD), residues 261 to 500, with N-terminal His6-yBBr-TEV tag (UniProt Q92731 261-500); assay: competition fluorescence polarization; 200 nM ERβ LBD, 10 nM FITC-ERL4 probe, 1 µM estradiol
T2 construct: range 261-500; Expressed in E. coli BL21(DE3) pLysS from pET28a+, purified by Ni-NTA and SEC; Assays were run in the presence of estradiol; also called ER LBD; not shown: N-terminal His6-yBBr-TEV tag

[4] = target: T2, Estrogen receptor β ligand-binding …; assay: competition fluorescence polarization against FITC-ERL4 probe, 200 nM ERβ LBD, 1 µM estradiol
[5] = Table 4, binding to ER LBD, estradiol 1 μM, FITC-ERL4 10 nM, ERβ LBD 200 nM, mean ± S.E.M, at least four replicates
[6] = reverse-phase HPLC, Phenomenex Gemini C-18 column
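For % Retention in this document: Phospholipid-membrane PAMPA, donor and acceptor in DPBS pH 7.4 with 5% DMSO, 37 °C for 5 h, compound in each well quantified by reverse-phase HPLC-MS.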
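For PAMPA Pe (text) in this document: Phospholipid-membrane PAMPA, donor and acceptor in DPBS pH 7.4 with 5% DMSO, 37 °C for 5 h, compound in each well quantified by reverse-phase HPLC-MS.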
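For PAMPA Pe in this document: Phospholipid-membrane PAMPA, donor and acceptor in DPBS pH 7.4 with 5% DMSO, 37 °C for 5 h, compound in each well quantified by reverse-phase HPLC-MS.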
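For Papp in this document: Phospholipid-membrane PAMPA, donor and acceptor in DPBS pH 7.4 with 5% DMSO, 37 °C for 5 h, compound in each well quantified by reverse-phase HPLC-MS.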

T2 sequence (Q92731 261-500): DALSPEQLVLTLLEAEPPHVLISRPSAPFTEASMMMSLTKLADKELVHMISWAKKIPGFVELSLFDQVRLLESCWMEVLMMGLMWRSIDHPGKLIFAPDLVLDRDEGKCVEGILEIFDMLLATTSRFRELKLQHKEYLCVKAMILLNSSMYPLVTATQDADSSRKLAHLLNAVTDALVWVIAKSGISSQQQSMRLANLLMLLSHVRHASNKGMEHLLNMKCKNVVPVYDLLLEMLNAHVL

Row | Molecule | Papp at 5 h (in vitro) [×10⁻⁶ cm/s] | % Retention [2] [%] | binding result [4] | other results
1 | CNC(=O)[C@H](CC(N)=O)NC(=O)[C@H](CC(C)C)NC(=O)[C@H](CC(C)C)NC(=O)[C@H](Cc1c[nH]cn1)NC(=O)[C@]1(C)CCCC=CC[C@]2(CCCN2C(C)=O)C(=O)N[C@@H](C)C(=O)N[C@@H](CC(C)C)C(=O)N1 (single isomer, unassigned) [PLL7-20, Ac-PL3-Ala-Leu-S5-His-Leu-Leu-Asn-NHMe] | 1.3 ± 0.1 | 104 ± 2 | – | chromatographic logD [1]: 2.1; PAMPA Pe [2]: 1.3 ± 0.1 (×10^−6) cm/sec; EC50 (ERβ LBD; [5]): > 10 µM
2 | CNC(=O)[C@H](Cc1ccc(O)cc1)NC(=O)[C@H](CC(C)C)NC(=O)[C@H](CC(C)C)NC(=O)[C@H](Cc1c[nH]cn1)NC(=O)[C@H](CCCNC(=N)N)NC(=O)[C@]1(C)CCCC=CC[C@]2(CCCN2C(C)=O)C(=O)N[C@@H](CC(C)C)C(=O)N[C@@H](CC(C)C)C(=O)N1 [PLL4-2, Ac-PL3-Leu-Leu-S5-Arg-His-Leu-Leu-Tyr-NHMe] (Ac-[X1]LL[S5]RHLLY-NHMe; staple 1-4) | ≤ 0.1 | 43 ± 2 | – | chromatographic logD [1, 6]: 2.7; EC50 (ERβ LBD; binding towards the ERβ LBD): 0.4 µM
3 | CNC(=O)[C@H](Cc1ccc(O)cc1)NC(=O)[C@H](CCC(N)=O)NC(=O)[C@H](CC(C)C)NC(=O)[C@H](CC(C)C)NC(=O)[C@]1(C)CCCC=CC[C@]2(CCCN2C(C)=O)C(=O)N[C@@H](CC(C)C)C(=O)N[C@@H](Cc2c[nH]cn2)C(=O)N1 (single isomer, unassigned) [PLL4-7, Ac-PL3-Leu-His-S5-Leu-Leu-Gln-Tyr-NHMe] | 0.3 ± 0.1 | 46 ± 3 | – | chromatographic logD [1]: 2.5; PAMPA Pe (text) [2]: 0.3-0.7 ×10^−6 cm/sec; EC50 (ERβ LBD; Table 2, binding to ER LBD, estradiol 1 μM, FITC-ERL4 10 nM, ERβ LBD 200 nM, mean ± S.E.M, at least four replicates): > 10 µM
4 | CNC(=O)[C@H](Cc1c[nH]cn1)NC(=O)[C@H](CC(C)C)NC(=O)[C@H](CC(C)C)NC(=O)[C@H](Cc1ccc(O)cc1)NC(=O)[C@]1(C)CCCC=CC[C@]2(CCCN2C(C)=O)C(=O)N[C@@H](CC(C)C)C(=O)N[C@@H](CC(C)C)C(=O)N1 (single isomer, unassigned) [PLL5-11, Ac-PL3-Leu-Leu-S5-Tyr-Leu-Leu-His-NHMe] | ≤ 0.1 | 89 ± 1 | – | chromatographic logD [1]: 3.2; EC50 (ERβ LBD; [5]): > 10 µM
5 | CNC(=O)[C@H](CC(=O)O)NC(=O)[C@H](CCC(N)=O)NC(=O)[C@H](CC(C)C)NC(=O)[C@H](CC(C)C)NC(=O)[C@H](Cc1ccc(O)cc1)NC(=O)[C@]1(C)CCCC=CC[C@]2(CCCN2C(C)=O)C(=O)N[C@@H](C)C(=O)N[C@@H](CC(C)C)C(=O)N1 (single isomer, unassigned) [PLL7-8, Ac-PL3-Ala-Leu-S5-Tyr-Leu-Leu-Gln-Asp-NHMe] | 1.4 ± 0.3 | 107 ± 3 | – | chromatographic logD [1]: 1.7; EC50 (ERβ LBD; [5]): > 10 µM
6 | CNC(=O)[C@@H](NC(=O)[C@H](CC(C)C)NC(=O)[C@H](CC(C)C)NC(=O)[C@H](Cc1ccc(O)cc1)NC(=O)[C@]1(C)CCCC=CC[C@]2(CCCN2C(C)=O)C(=O)N[C@@H](CC(C)C)C(=O)N[C@@H](CC(C)C)C(=O)N1)[C@@H](C)O [PLL5-10, Ac-PL3-Leu-Leu-S5-Tyr-Leu-Leu-Thr-NHMe] (Ac-[X1]LL[S5]YLLT-NHMe; staple 1-4) | ≤ 0.1 | 34 ± 0 | – | chromatographic logD [1, 6]: 3.8; EC50 (ERβ LBD; [5]): 1.5 ± 0.2 µM
7 | CNC(=O)[C@H](CC(=O)O)NC(=O)[C@H](CC(C)C)NC(=O)[C@H](CC(C)C)NC(=O)[C@H](Cc1ccc(O)cc1)NC(=O)[C@]1(C)CCCC=CC[C@]2(CCCN2C(C)=O)C(=O)N[C@@H]([C@@H](C)O)C(=O)N[C@@H](CC(C)C)C(=O)N1 (single isomer, unassigned) [PLL5-5, Ac-PL3-Thr-Leu-S5-Tyr-Leu-Leu-Asp-NHMe] | 1.4 ± 0.2 | 101 ± 5 | – | chromatographic logD [1]: 1.4; EC50 (ERβ LBD; [5]): > 10 µM
8 | B1 | – | – | – | EC50 [3]: 3.9 µM
9 | B2 | – | – | – | EC50 [3]: 1.2 µM
10 | B3 | – | – | no binding (tested: peptide titrated 3-fold from 10 µM) | –
11 | B4 | – | – | – | EC50 [3]: 0.5 µM
12 | B5 | – | – | no binding (tested: peptide titrated 3-fold from 10 µM) | –
13 | B6 | – | – | – | EC50 [3]: 2 µM
14 | B7 | – | – | no binding (tested: peptide titrated 3-fold from 10 µM) | –
15 | B8 | – | – | no binding (tested: peptide titrated 3-fold from 10 µM) | –
16 | B9 | – | – | no binding (tested: peptide titrated 3-fold from 10 µM) | –
17 | B10 | – | – | no binding (tested: peptide titrated 3-fold from 10 µM) | –
